Consider 38 substances from publication PMC5095173, “Disulfide-activated protein kinase G Iα regulates cardiac diastolic relaxation and fine-tunes the Frank–Starling response” (Nature Communications, 2016).

Where no end group is shown, it is not given here. [ ]: non-standard residue; d: D form. pT = C[C@@H](OP(=O)(O)O)[C@H](N)C(=O)O; Met(O) = CS(=O)CC[C@H](N)C(=O)O; pS = N[C@@H](COP(=O)(O)O)C(=O)O

Test [1] deals with PKGIα (analogue-sensitive C42S/M438G), cGMP-activated. Briefly: Chemical genetic phosphoproteomic screen, cGMP-activated PKGIα C42S/M438G versus unactivated control. As to conditions: for Log2 fold change in phosphorylation, cGMP versus control: PKGIα C42S/M438G + 100 μM cGMP vs basal, 1 h, 30 °C, pH 7.5, rat heart homogenate, label-free LC–MS/MS, n=4, * P<0.05 Dunnett: all values except phospholamban S16; for log2 fold change cGMP vs Control: control = PKGIα C42S/M438G; for log2 fold changes: Group 1 (cGMP-activated) vs Group 3 (control). The format is biochemical, human PKGIα; substrates in rat heart homogenate. An excerpt: (§1) We employed a chemical genetic method[18] to identify direct substrates of cGMP-activated PKGIα and disulfide bond-activated PKGIα in heart tissue. This method involves mutation of the ATP binding-site of the kinase of interest so that it can accept a ‘bulky' N6-alkylated ATP analogue for example, N6^−phenylethyl ATP. An oxygen atom on the γ phosphate is also replaced with a sulfur atom—giving an N6-alkylated ATPγS analogue—so that the mutant kinase catalyses the transfer of a thiophosphate group (–PO3S^3−) to its substrates instead of a phosphate. The thiophosphate group is nucleophilic, providing a basis for substrates of the analogue-sensitive kinase to be purified by a ‘covalent capture' protocol. LC–MS/MS allows identification of the substrate and localization of the phosphorylation site. Thiophosphorylated proteins can also be detected with a thiophosphate ester-specific antibody. Analogue-sensitive mutants of PKGIα and PKGIα C42S (which cannot form the activating intermolecular disulfide bond) were generated by mutating Met438 in the ATP-binding domain to Gly. This mutation was chosen based on a previous study where an analogue-sensitive mutant of the catalytic subunit of PKA—which shares sequence homology with PKGIα—was engineered. Detailed protocols are given below.
(§2) A pCDNA3 expression vector encoding human FLAG-tagged PKGIα (ref. [41]) underwent site-directed mutagenesis to generate constructs for untagged WT, C42S, M438G and C42S/M438G PKGIα. Mutations were introduced using the QuikChange II Site-Directed Mutagenesis Kit (Agilent) according to the manufacturer's instructions. Expression and purification of the PKGIα mutants was performed according to a published method[42] as follows: suspension FreeStyle 293-F cells (ThermoFisher Scientific) were transfected with the appropriate PKGIα construct using the stable cationic polymer polyethyleneimine (PEI) as a transfection reagent. After ∼72 h cells were harvested by centrifugation (400g; room temperature; 15 min), re-suspended in ice cold lysis buffer (25 mM sodium phosphate buffer pH 6.8; 10 mM ethylenediaminetetraacetic acid (EDTA); 100 mM NaCl; 10 mM benzamidine hydrochloride; and 10 mM dithiothreitol (DTT)) and frozen in liquid N2. Cells were lysed by three freeze (liquid N2)-thaw (37 °C) cycles and the lysate was clarified by centrifugation at 140,000g and 4 °C for 30 min. The soluble protein fraction was loaded onto a pre-equilibrated 8-(2-aminoethylamino)adenosine-3′, 5′-cyclic monophosphate column (8-AEA-cAMP agarose; BioLog, Germany) followed by washing with 20 column volumes of lysis buffer. The column was further washed with lysis buffer +3 M NaCl (5 column volumes) and PKGIα was then eluted with lysis buffer +150 mM NaCl and 500 μM cAMP. Removal of cAMP and buffer exchange was achieved by extensive dialysis against 25 mM sodium phosphate buffer pH 6.8, 2 mM EDTA and 100 mM NaCl. For ITC analysis, WT PKGIα was incubated with 10 mM lipoic acid for 2 h on ice to obtain ∼100% disulfide dimer (confirmed by SDS-PAGE). Oxidized WT or C42S PKGIα was further purified by size exclusion chromatography using a HiLoad 16/600 Superdex 200 pg column (GE Healthcare) with 50 mM sodium phosphate buffer pH 7.4 and 100 mM NaCl. Proteins were concentrated using Amicon Ultra centrifugal filter devices (Merck Millipore). DTT was absent in storage buffers so that the activating disulfide bond would not be reduced and so that the PKGIα M438G mutant would be oxidized to disulfide dimer in the presence of air (confirmed by SDS-PAGE). Protein concentration was determined by Pierce BCA assay (ThermoFisher) and enzyme activity was confirmed using the Omnia kinase assay kit (ThermoFisher).
(§3) Male Wistar rats (9–10 weeks; body weight 300–330 g) were euthanized by intraperitoneal injection of sodium pentobarbitone (200 mg kg^−1) with heparin (500 USP units). […]

For test [2], the system named is PKGIα (analogue-sensitive M438G), disulfide-activated. Briefly: Chemical genetic phosphoproteomic screen, disulfide-activated PKGIα M438G versus unactivated control. The format is biochemical, human PKGIα; substrates in rat heart homogenate. As to conditions: for Log2 fold change in phosphorylation, Disulfide versus control: disulfide-activated PKGIα M438G vs basal, 1 h, 30 °C, pH 7.5, rat heart homogenate, label-free LC–MS/MS, * P<0.05 Dunnett: only phospholamban S16; for log2 fold change Disulfide vs Control: control = PKGIα C42S/M438G; for log2 fold changes: Group 2 (disulfide-activated) vs Group 3 (control).
Text: as §1, §2, §3

With “CAP-Gly domain-containing linker protein 2: PKGIα substrate, phospho site S353”, the “Log2 fold change in phosphorylation, cGMP versus control” value (“Log2 fold change … cGMP versus control” for short) in test [1] was 2.05*. The “Log2 fold change in phosphorylation, Disulfide versus control” value in test [2] (n=4) is 0.98.

As to Map1a pS460, in test [1], the “log2 fold change cGMP vs Control” value was 2.406. In test [2], the “log2 fold change Disulfide vs Control” value was determined as 0.5914.

As for “Wipf1 pS324 (NLSLTSPTPPLPSPGR; also: phosphoserine pS324, several Ser, place not given here)”, the values for the log2 fold changes in test [1] and in test [2] were 2.215 and -0.2547, respectively.

As for Foxo1 pS270, in test [1], the “log2 fold change cGMP vs Control” value turned out to be 0.9588. For the same substance, the “log2 fold change Disulfide vs Control” value in test [2] turned out to be 0.7421.

As for “Mylk3 pS155 (KG[pS]LADGPEENKEQAEVAGVKPK)”, the “log2 fold change cGMP vs Control” value in test [1] is recorded as 3.16. The “log2 fold change Disulfide vs Control” value in test [2] turned out to be 1.131.

Regarding “Mybbp1a pS1318 (ARLSLVSR; also: phosphoserine (pS1318), site in peptide not given here)”, the “log2 fold change cGMP vs Control” value in test [1] is given as -0.9192. Besides, the “log2 fold change Disulfide vs Control” value in test [2] is -0.09923.

As for “Troponin I, cardiac muscle: PKGIα substrate, phospho site S167”, the “Log2 fold change … cGMP versus control” value in test [1] is 3.49*. For the same substance, in test [2] (n=4), the “Log2 fold change in phosphorylation, Disulfide versus control” value is recorded as 1.65.

Take “Pcnp pS95 (KASAISIR; also: phosphoserine (pS95), site in peptide not given here)”: the “log2 fold change cGMP vs Control” value in test [1] is reported as -1.793. The “log2 fold change Disulfide vs Control” value in test [2] was determined as 0.1824.

For the substance Speg pS2019, the log2 fold changes is 1.632 in test [1] and 1.452 in test [2].

Regarding “Mrps31 pS191 (RVSFTQIISNMK; also: phosphoserine (pS191), site in peptide not given here)”, in test [1], the “log2 fold change cGMP vs Control” value was found to be 0.6921. Moreover, in test [2], the “log2 fold change Disulfide vs Control” value was determined as 0.1676.

In the case of “Protein SET: PKGIα substrate, phospho site S7”, the “Log2 fold change … cGMP versus control” value in test [1] is on record as 3.80*. Further, the “Log2 fold change in phosphorylation, Disulfide versus control” value in test [2] (n=4) worked out at 1.76.

On to Speg pS2410, for which the figures for the log2 fold changes in test [1] and in test [2] were -0.7401 and -0.1096, respectively.

Consider “Mthfd1 pT545 (KITIGQAPTEK; also: phosphothreonine (pT545), site in peptide not given here)”, for which the “log2 fold change cGMP vs Control” value in test [1] is 3.681. The “log2 fold change Disulfide vs Control” value in test [2] amounted to 1.475.

For the substance Prkcdbp pS199 (KG[pS]EAAQPTPVKPPR), the “log2 fold change cGMP vs Control” value in test [1] is given as 1.54. For the same substance, in test [2], the “log2 fold change Disulfide vs Control” value is 1.3478.

As to “E3 ubiquitin-protein ligase TRIP12: PKGIα substrate, phospho site S1073”, the “Log2 fold change … cGMP versus control” value in test [1] was 1.63*. The “Log2 fold change in phosphorylation, Disulfide versus control” value in test [2] (n=4) stood at 0.66.

Turning to Limd1 pS303, in test [1], the “log2 fold change cGMP vs Control” value is given as 2.801. The “log2 fold change Disulfide vs Control” value in test [2] was 2.11.

Turning to Tnni3 pS167 (AKE[pS]LDLR), the results for the log2 fold changes in test [1] and in test [2] were 3.492 and 1.654, respectively.

With “Olr1571 pS170 (AISSSQGK; also: phosphoserine (pS170), site in peptide not given here)”, in test [1], the “log2 fold change cGMP vs Control” value was -4.008. In addition, in test [2], the “log2 fold change Disulfide vs Control” value is listed as -1.218.

Turning to Speg pS2135, the log2 fold changes worked out at 4.01 in test [1] and 1.764 in test [2].

On to “Stmn1 pS31 (SKESVPEFPLSPPK; also: phosphoserine pS31, several Ser, place not given here)”, for which the figures for the log2 fold changes in test [1] and in test [2] were 4.264 and 0.3093, respectively.

Take “Pln pS16 (RA[pS]TIEMPQQAR; not fully specified (residue 7))”: the “log2 fold change cGMP vs Control” value in test [1] is given as -0.8119. In test [2], the “log2 fold change Disulfide vs Control” value was 0.4097.

Regarding “Cardiac phospholamban: PKGIα substrate, phospho site S16 (MEKVQYLTRSAIRRA[pS]TIEMPQQARQNLQNLFINFCLILICLLLICIIVMLL; cysteine pairing not given here; UniProt P61016 1-52, looked up)”, the “Log2 fold change … cGMP versus control” value in test [1] was −0.81. Further, in test [2] (n=4), the “Log2 fold change in phosphorylation, Disulfide versus control” value is recorded as 0.41*.

“Ryr2 pS2798 (RISQTSQVSIDAAHGYSPR; also: phosphoserine (pS2798), site in peptide not given here)”: the log2 fold changes is on record as 1.758 in test [1] and -0.1315 in test [2].

As for Trmt10c pT377 (RKH[pT]GYLEVPEHSQAAFR), the “log2 fold change cGMP vs Control” value in test [1] stood at 1.984. The “log2 fold change Disulfide vs Control” value in test [2] came out at 0.4487.

On to “Snx17 pS437 (LSSKLSAVSLR; also: phosphoserine pS437, several Ser, place not given here)”, for which the values for the log2 fold changes in test [1] and in test [2] were 3.5 and 1.271, respectively.

With “Rnf123 pS690 (FLSTAAVSL[Met(O)]TPR; also: phosphoserine, site not given here)”, the “log2 fold change cGMP vs Control” value in test [1] came out at 3.971. Besides, the “log2 fold change Disulfide vs Control” value in test [2] is listed as -1.634.

Regarding “Sarnp pS138 (GLSSDTKP[Met(O)]VNLDK; also: phosphoserine, site not given here)”, the log2 fold changes in test [1] was found to be 4.118; in test [2], 1.9607.

Regarding “RApSTIEMPQQAR [phosphopeptide from the cardiac protein phospholamban]”, the “phosphopeptide abundance relative to control, PKGIα activated by Cys42 oxidation” value in test [2] (PLN pSer16, P<0.05, n=4) is “significantly increased relative to control”.

Take Tnni3 pS151: the figures for the log2 fold changes in test [1] and in test [2] were 2.921 and -0.2077, respectively.

“Nucb2 pS85 (SGRLSQELDLVSHK; also: phosphoserine (pS85), site in peptide not given here)”: the “log2 fold change cGMP vs Control” value in test [1] is recorded as -1.746. The “log2 fold change Disulfide vs Control” value in test [2] is listed as -0.4443.

As to Nucb1 pS368 (AQRL[pS]QETEALGR), the “log2 fold change cGMP vs Control” value in test [1] was 5.775. In test [2], the “log2 fold change Disulfide vs Control” value was determined as 3.208.

On to “Microtubule-associated protein 1A: PKGIα substrate, phospho site S460”, for which the “Log2 fold change … cGMP versus control” value in test [1] is reported as 2.41*. The “Log2 fold change in phosphorylation, Disulfide versus control” value in test [2] (n=4) turned out to be 0.59.

Consider Mink1 pS997 (KG[pS]VVNVNPTNTR), for which, in test [1], the “log2 fold change cGMP vs Control” value is reported as 0.5982. Further, the “log2 fold change Disulfide vs Control” value in test [2] is reported as 0.583.

As for Set pS7 (RQ[pS]AILPQPK), the “log2 fold change cGMP vs Control” value in test [1] came out at 3.804. Moreover, the “log2 fold change Disulfide vs Control” value in test [2] is 1.764.

For Clip2 pS353, the “log2 fold change cGMP vs Control” value in test [1] is recorded as 2.051. Further, the “log2 fold change Disulfide vs Control” value in test [2] is 0.983.

As for Prrc2a pS457, in test [1], the “log2 fold change cGMP vs Control” value came to 0.5056. Moreover, the “log2 fold change Disulfide vs Control” value in test [2] is given as 0.2134.

As for Pde4a pS140 (RE[pS]FLYR), the “log2 fold change cGMP vs Control” value in test [1] was determined as 1.223. Besides, the “log2 fold change Disulfide vs Control” value in test [2] is 1.1526.

Regarding Trip12 pS1073, the “log2 fold change cGMP vs Control” value in test [1] is 1.63. The “log2 fold change Disulfide vs Control” value in test [2] worked out at 0.661.
